Laboratory results published in patent US10150969B2, “Methods and compositions to regulate plant transformation susceptibility” (priority 2010, dated 2018).

Key:
[1] = tested on: Arabidopsis root segments; conditions: Col-0 and Bl-1 root segments, 24 h, 1.4 μM trans-zeatin
Experimental: Root segments of Arabidopsis Bl-1 and MTF-RNAi lines were incubated with A. tumefaciens A208 containing pJZ383 (Ptac::GFP). Root segments were co-cultivated with 10^5 cfu/mL (ecotype Columbia) or 10^8 cfu/mL (ecotype Bl-1) for 24 h in B5 minimal medium. Root segments were rinsed and visualized by epifluorescence microscopy.
Agrobacterium attachment assays were conducted as described herein. Col-0 and Bl-1 root segments were co-cultivated with A281 at 10^6 or 10^8 cfu/mL, respectively, for 24 h in the presence or absence of 1.4 μM trans-zeatin.

MTF = conditions: Col-0 and Bl-1 root segments treated for two days with trans-zeatin
Experimental: Real-time RT-PCR was carried out using total RNA isolated in triplicate from roots of plants grown in liquid B5 medium. PCR was performed in triplicate on an ABI Prism 7500 Sequence Detection System (Applied Biosystems, Foster City, Calif.). Expression levels were calculated by the relative standard curve method (Applied Biosystems) for all transcripts except ORA59, where the comparative cycle threshold method (Applied Biosystems) was used, and normalized to Actin2 transcript levels.
(§1) Roots were infected with bacteria at 10^6 cfu/mL (Col-0) or 10^8 cfu/mL (Bl-1). Following infection, root segments were either transferred to MS basal medium containing 100 μg/mL Timentin and incubated for 4-5 weeks before recording the percentage of root segments developing tumors, or used for RNA isolation.

[2] = tested on: Arabidopsis root segments; conditions: A. tumefaciens A348 or A281 (no TZS), 1.4 or 14 μM trans-zeatin
Experimental: Neither of these strains harbors TZS. Trans-zeatin concentrations representing the range secreted by nopaline-type A. tumefaciens strains were used.
A. tumefaciens was cultured in Yeast Extract-Peptone medium (Lichtenstein et al., 1986) containing the appropriate antibiotics. Root transformation assays were carried out as previously described by Nam et al. with minor modifications (Tenea et al., 2009). MS basal medium lacking phytohormones was used to select for tumors. GUS activity assays were carried out after infection of root segments with A. tumefaciens At849 (Narasimhulu et al., 1996) for 4-6 d, using X-gluc (Jefferson et al., 1987).
as §1

Arabidopsis roots = conditions: kinetin applied during infection; Agrobacterium tzs mutant; Hwang et al., 2010; cited from earlier work

SMILES | attachment of A. tumefaciens A281 [1] | decrease of MTF transcript levels (MTF) | increase in transformation efficiency ([2]; Col-0 roots, percentage of root segments developing tumors) | increase in susceptibility ([2]; ecotype Bl-1 roots) | susceptibility of roots to transformation (Arabidopsis roots)
C/C(=C\CNc1ncnc2nc[nH]c12)CO [trans-zeatin] | increased attachment | 30-60% | 4-8 fold | 2-3 fold | –
c1coc(CNc2ncnc3[nH]cnc23)c1 [kinetin] | – | – | – | – | increased the susceptibility
